# Results: PMC12500856 (Nature Communications, 2025)
# T1: SgGouE (Streptomyces graminearus, UniProt K4HPM3)
# T1 sequence (K4HPM3 1-246): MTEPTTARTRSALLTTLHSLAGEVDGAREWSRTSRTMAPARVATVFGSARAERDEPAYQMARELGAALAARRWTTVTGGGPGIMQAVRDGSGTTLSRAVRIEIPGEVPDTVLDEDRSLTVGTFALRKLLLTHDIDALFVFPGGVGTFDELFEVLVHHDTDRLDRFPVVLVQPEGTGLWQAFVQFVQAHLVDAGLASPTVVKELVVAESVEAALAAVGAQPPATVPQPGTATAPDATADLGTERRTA
# T2: CodA (Escherichia coli, UniProt P25524)
# T2 sequence (P25524 2-427): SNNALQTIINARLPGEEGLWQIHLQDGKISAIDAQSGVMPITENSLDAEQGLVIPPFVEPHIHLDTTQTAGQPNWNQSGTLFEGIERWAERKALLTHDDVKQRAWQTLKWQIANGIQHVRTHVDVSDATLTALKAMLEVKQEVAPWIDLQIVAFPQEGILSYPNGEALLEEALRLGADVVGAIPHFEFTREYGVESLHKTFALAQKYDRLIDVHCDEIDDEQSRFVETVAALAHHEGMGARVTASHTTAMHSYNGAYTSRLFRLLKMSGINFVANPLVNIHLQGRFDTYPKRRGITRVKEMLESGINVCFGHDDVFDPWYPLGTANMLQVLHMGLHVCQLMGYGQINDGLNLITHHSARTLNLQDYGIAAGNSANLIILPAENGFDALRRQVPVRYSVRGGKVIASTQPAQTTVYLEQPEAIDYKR
# Assays:
# SgGouE [1] = biological target: T1, SgGouE; assay: HPLC turnover assay; format: biochemical; settings: 50 mM Tris-HCl pH 8.0, 1 mM CMP, 1 mM MgCl2, 30 °C (cascade)
# SgGouE [2] = biological target: T1, SgGouE; assay: HPLC turnover assay; format: biochemical
# CodA = biological target: T2, CodA; assay: HPLC, deamination in cascade; format: biochemical; settings: 50 mM Tris-HCl pH 8.0, 1 mM MgCl2, 30 °C
# PhoA = PhoA (Escherichia coli, UniProt P00634); assay: HPLC, dephosphorylation in cascade; format: biochemical; settings: 50 mM Tris-HCl pH 8.0, 1 mM MgCl2, 30 °C
# HDHD1 = HDHD1 (Homo sapiens, UniProt Q08623); assay: in vitro competition assay, dephosphorylation; format: biochemical; settings: competition with UMP
# [3] = substrate: O=c1ccn([C@@H]2O[C@H](COP(=O)(O)O)[C@@H](O)[C@H]2O)c(=O)[nH]1; assay: kinetic analysis of UMP hydrolysis; format: biochemical, Neisseria meningitidis
# Chain of HDHD1 (Q08623 whole entry): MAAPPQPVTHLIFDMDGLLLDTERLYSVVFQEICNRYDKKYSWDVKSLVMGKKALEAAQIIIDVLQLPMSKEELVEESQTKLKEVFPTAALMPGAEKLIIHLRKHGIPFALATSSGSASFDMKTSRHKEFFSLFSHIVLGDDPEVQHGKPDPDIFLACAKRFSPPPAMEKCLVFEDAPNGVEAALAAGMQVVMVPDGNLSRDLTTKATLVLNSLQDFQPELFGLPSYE
# Chain of PhoA (P00634 22-471): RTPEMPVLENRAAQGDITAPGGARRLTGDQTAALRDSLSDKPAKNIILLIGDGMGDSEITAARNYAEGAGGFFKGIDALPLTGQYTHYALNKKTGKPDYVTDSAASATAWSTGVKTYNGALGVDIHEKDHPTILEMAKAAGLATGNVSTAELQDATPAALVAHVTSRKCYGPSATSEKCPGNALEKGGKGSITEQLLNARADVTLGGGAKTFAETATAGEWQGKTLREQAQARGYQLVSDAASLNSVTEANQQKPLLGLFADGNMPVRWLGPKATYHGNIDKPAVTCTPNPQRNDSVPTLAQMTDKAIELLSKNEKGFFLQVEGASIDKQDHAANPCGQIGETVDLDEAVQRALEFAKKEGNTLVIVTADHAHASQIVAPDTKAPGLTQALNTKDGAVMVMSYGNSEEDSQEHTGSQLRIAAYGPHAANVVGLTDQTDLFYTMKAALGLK
molecule,measurement,setting,value
Nc1ccn([C@@H]2O[C@H](COP(=O)(O)O)[C@@H](O)[C@H]2O)c(=O)n1 [CMP],HPLC turnover assay,SgGouE [1],we found that SgGouE indicates the most superior performance
O=c1ccn([C@@H]2O[C@H](COP(=O)(O)O)[C@@H](O)[C@H]2O)c(=O)[nH]1 [UMP],relative efficiency,SgGouE [2],50%
Nc1cc[nH]c(=O)n1 [cytosine],"HPLC, deamination in cascade",CodA,cytosine can be easily deaminated by CodA (deaminase)
O=c1[nH]cc([C@@H]2O[C@H](COP(=O)(O)O)[C@@H](O)[C@H]2O)c(=O)[nH]1 [ΨMP],"HPLC, dephosphorylation in cascade",PhoA,the phosphatase PhoA was utilized for the dephosphorylation of ΨMP for related assays
same,"in vitro competition assay, dephosphorylation",HDHD1,HDHD1 has prominent specificity and activity against the latter substrate
NmYgdH (Neisseria meningitidis MC58) (protein) MENTNRVPEQARYDAERRQADEALAGVFPAVSIFGSARTPQNHADYAFACRLARRLSDSGIAVISGGGPGIMEAANKGAFAGKSVSVGLNIVLPHEQKPNPYQDIALRFSRFAERKAVFFRYSQAYVVMPGGFGTLDELFEILTLVQTGKVPPRPIVLVGKAFWSGLAEWINAQLLARGLISEGAVSLFAISDDEDEIVAYLSEHGLQTA,Km,[3],11.78 ± 0.81 mM
same,kcat,[3],81.90 ± 2.60 s⁻¹
